Results: PubChem BioAssay AID1259411 (Chemical Carcinogenesis Research Information System (CCRIS), 2018)
Activity calls are given as the source filed them. How the calls were made is not given here.

Tested on: rodent carcinogenicity bioassays, tumor incidence
Experiment: CCRIS carcinogenicity studies
Outline: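 NCI-built, expert-reviewed records of carcinogenicity and related test outcomes (mutagenicity, tumor promotion/inhibition) compiled from published and report sources, historical span 1985-2011, not updated.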

For `NNC(N)=O`, which carcinogen call (Species: MOUSE, Strain/Sex: SWISS/FEMALE, Route: ORAL, Dose: 0.0625% IN DRINKING WATER FOR LIFE, Tumor Site: Type of Lesion: BLOOD VESSELS: ANGIOMA, ANGIOSARCOMA, LUNG) is on record?
Its carcinogen call is “active; positive”.

What about the carcinogen call (Species: RAT, Strain/Sex: STRAIN-CD/FEMALE, Route: ORAL, Dose: 500, 1000 PPM IN DIET FOR 78 WK (LOW DOSE) OR 32 WK (HIGH DOSE)) of the same compound?
Its carcinogen call is “inactive; negative”.

For `CCO[Si](CCC1CCC2OC2C1)(OCC)OCC` (stereo unspecified), which carcinogen call (Species: MOUSE, Strain/Sex: C3H/MALE, Route: DERMAL, Dose: 0, 2 MG IN ACETONE 3/WK FOR DURATION OF STUDY (STUDY DURATION: LIFETIME)) is on record?
The carcinogen call was “inactive; negative”.

Which results are given for `NC[N+](=O)[O-]`?
carcinogen call (Species: RAT, Strain/Sex: BDVI/FEMALE, Route: GAVAGE, Dose: 0, 38, 76 MG/KG 1/WK FOR DURATION OF STUDY (STUDY DURATION: LIFETIME), Dose: 0, 38, 76 MG/KG 1/WK FOR DURATION OF STUDY (STUDY DURATION: LIFETIME), Tumor Site: Type of Lesion: SPINAL CORD: NEURINOMA, SPINAL NERVES: NEURINOMA): active; positive; carcinogen call (Species: RAT, Strain/Sex: BDVI/MALE, Route: GAVAGE, Dose: 0, 38, 76 MG/KG 1/WK FOR DURATION OF STUDY (STUDY DURATION: LIFETIME), Dose: 0, 38, 76 MG/KG 1/WK FOR DURATION OF STUDY (STUDY DURATION: LIFETIME), Tumor Site: Type of Lesion: SPINAL CORD: NEURINOMA, SPINAL NERVES: NEURINOMA): active; positive

`O=S(=O)([O-])[O-].[Ni+2]` was tested. Which carcinogen call (Species: MOUSE, Strain/Sex: B6C3F1/FEMALE, Route: INHALATION, Dose: 0, 0.25, 0.5, 1 MG/M3 6 HR/D 5 D/WK FOR 104 WK (STUDY DURATION: 105 WK), Dose: 0, 0.25, 0.5, 1 MG/M3 6 HR/D 5 D/WK FOR 104 WK (STUDY DURATION: 105 WK)) did it give?
Its carcinogen call is “inactive; negative”.

What about the carcinogen call (Species: MOUSE, Strain/Sex: B6C3F1/MALE, Route: INHALATION, Dose: 0, 0.25, 0.5, 1 MG/M3 6 HR/D 5 D/WK FOR 104 WK (STUDY DURATION: 105 WK), Dose: 0, 0.25, 0.5, 1 MG/M3 6 HR/D 5 D/WK FOR 104 WK (STUDY DURATION: 105 WK)) of the same compound?
The carcinogen call was “inactive; negative”.

What about the carcinogen call (Species: RAT, Strain/Sex: F344/FEMALE, Route: INHALATION, Dose: 0, 0.12, 0.25, 0.5 MG/M3 6 HR/D 5 D/WK FOR 104 WK (STUDY DURATION: 105 WK), Dose: 0, 0.12, 0.25, 0.5 MG/M3 6 HR/D 5 D/WK FOR 104 WK (STUDY DURATION: 105 WK)) of the same compound?
The carcinogen call was “inactive; negative”.

And the carcinogen call (Species: RAT, Strain/Sex: F344/MALE, Route: INHALATION, Dose: 0, 0.12, 0.25, 0.5 MG/M3 6 HR/D 5 D/WK FOR 104 WK (STUDY DURATION: 105 WK), Dose: 0, 0.12, 0.25, 0.5 MG/M3 6 HR/D 5 D/WK FOR 104 WK (STUDY DURATION: 105 WK))?
The carcinogen call was “inactive; negative”.

What about the carcinogen call (Species: RAT, Strain/Sex: F344/MALE, Route: INTRAMUSCULAR, Dose: 0, 63, 83, UMOL/KG GIVEN IN 14 INJECTIONS OVER 26 D (STUDY DURATION; 2 YR), Dose: 0, 63, 83, UMOL/KG GIVEN IN 14 INJECTIONS OVER 26 D (STUDY DURATION; 2 YR)) of the same compound?
The carcinogen call was “inactive; negative”.

What about the carcinogen call (Species: Rat, Strain/Sex: Fischer 344/Female (50/group), Route: Oral, Dose: 0, 10, 30, 50 mg/kg/day by gavage once daily for 104 wk, Dose: 0, 10, 30, 50 mg/kg/day by gavage once daily for 104 wk) of the same compound?
The carcinogen call was “inactive; negative”.

What about the carcinogen call (Species: Rat, Strain/Sex: Fischer 344/Male (50/group), Route: Oral, Dose: 0, 10, 30, 50 mg/kg/day by gavage once daily for 104 wk, Dose: 0, 10, 30, 50 mg/kg/day by gavage once daily for 104 wk) of the same compound?
Its carcinogen call is “inactive; negative”.

Which results are given for `O=[As]O`?
carcinogen call (Species: Mouse, Strain/Sex: C3H/10 pregnant dams/group, 25 male and 25 female offspring per group assigned at 4 wks of age, Route: Oral, Dose: 0, 42.5, 85 ppm in drinking water of dams, offspring followed for 90 wks, Tumor Site: Type of Lesion: Hepatocellular carcinoma in offspring): active; positive; carcinogen call (Species: Mouse, Strain/Sex: C3H/Female offspring, Route: Oral, Dose: 0, 85 ppm (in drinking water of dam) in utero): inactive; negative; carcinogen call (Species: Mouse, Strain/Sex: C3H/Female offspring, Route: Oral, Dose: 0, 85 ppm in drinking water post pubescence (PND 56) to 365 days): inactive; negative (hyperplasia only, no tumors); carcinogen call (Species: Mouse, Strain/Sex: C3H/Female offspring, Route: Oral, Dose: 0, 85 ppm in drinking water prior to pubescence (PND 21) to 365 days): inactive; negative (hyperplasia only, no increase in tumors); carcinogen call (Species: Mouse, Strain/Sex: C3H/Female offspring, Route: Oral, Dose: 0, 85 ppm in utero and in drinking water to 365 days): inactive; negative; carcinogen call (Species: Mouse, Strain/Sex: C3H/HeNCr F344/ Male and female (25-35/Group as offspring of 10 dams per exposure level), Route: Drinking water, Dose: 0, 42.5, 85 ppm ad lib on gestation days 8-18, study duration for offspring 90 wks, Tumor Site: Type of Lesion: Male offspring: Liver: hepatocellular carcinoma (statistically significant increase in incidence and multiplicity), Adre): active; positive; carcinogen call (Species: Mouse, Strain/Sex: C3H/Male offspring, Route: Oral, Dose: 0, 85 ppm (in drinking water of dam) in utero): inactive; negative; carcinogen call (Species: Mouse, Strain/Sex: C3H/Male offspring, Route: Oral, Dose: 0, 85 ppm in drinking water post pubescence (PND 56) to 365 days): inactive; negative (decreased incidence of spontaneous tumors); carcinogen call (Species: Mouse, Strain/Sex: C3H/Male offspring, Route: Oral, Dose: 0, 85 ppm in drinking water prior to pubescence (PND 21) to 365 days): inactive; negative (decreased incidence of spontaneous tumors); carcinogen call (Species: Mouse, Strain/Sex: C3H/Male offspring, Route: Oral, Dose: 0, 85 ppm in utero and in drinking water to 365 days, Tumor Site: Type of Lesion: Liver: adenoma and carcinoma (30%, 0%)): active; positive

`OCC1CO1` (stereo unspecified) was tested. Which carcinogen call (Species: MOUSE, Strain/Sex: B6C3F1/FEMALE, Route: GAVAGE, Dose: 0, 25, 50 MG/KG IN DISTILLED WATER 5 D/WK FOR 103 WK (STUDY DURATION: 105 WK), Dose: 0, 25, 50 MG/KG IN DISTILLED WATER 5 D/WK FOR 103 WK (STUDY DURATION: 105 WK), Tumor Site: Type of Lesion: SUBCUTANEOUS TISSUE: SARCOMA, SARCOMA OR FIBROSARCOMA, MAMMARY GLAND: ADENOCARCINOMA, ADENOMA OR FIBROADENOMA OR ADENOCA) did it give?
The carcinogen call was “active; positive”.

And the carcinogen call (Species: MOUSE, Strain/Sex: B6C3F1/MALE, Route: GAVAGE, Dose: 0, 25, 50 MG/KG IN DISTILLED WATER 5 D/WK FOR 103 WK (STUDY DURATION: 105 WK), Dose: 0, 25, 50 MG/KG IN DISTILLED WATER 5 D/WK FOR 103 WK (STUDY DURATION: 105 WK), Tumor Site: Type of Lesion: SKIN: SQUAMOUS CELL PAPILLOMA, LUNG: ALVEOLAR/BRONCHIOLAR ADENOMA OR CARCINOMA, LIVER: HEPATOCELLULAR ADENOMA, HEPATOCEL, Tumor Site: Type of Lesion: SKIN: SQUAMOUS CELL PAPILLOMA, LUNG: ALVEOLAR/BRONCHIOLAR ADENOMA OR CARCINOMA, LIVER: HEPATOCELLULAR ADENOMA, HEPATOCEL)?
Its carcinogen call is “active; positive”.

What about the carcinogen call (Species: RAT, Strain/Sex: F344/FEMALE, Route: GAVAGE, Dose: 0, 37.5, 75 MG/KG IN DISTILLED WATER 5 D/WK FOR 103 WK (STUDY DURATION: 104 WK), Dose: 0, 37.5, 75 MG/KG IN DISTILLED WATER 5 D/WK FOR 103 WK (STUDY DURATION: 104 WK), Tumor Site: Type of Lesion: HEMATOPOIETIC SYSTEM: MONONUCLEAR CELL LEUKEMIA, ORAL CAVITY (MOUTH OR TONGUE): SQUAMOUS CELL PAPILLOMA OR CARCINOMA, FO, Tumor Site: Type of Lesion: HEMATOPOIETIC SYSTEM: MONONUCLEAR CELL LEUKEMIA, ORAL CAVITY (MOUTH OR TONGUE): SQUAMOUS CELL PAPILLOMA OR CARCINOMA, FO) of the same compound?
The carcinogen call was “active; positive”.

What about the carcinogen call (Species: RAT, Strain/Sex: F344/MALE, Route: GAVAGE, Dose: 0, 37.5, 75 MG/KG IN DISTILLED WATER 5 D/WK FOR 103 WK (STUDY DURATION: 104 WK), Dose: 0, 37.5, 75 MG/KG IN DISTILLED WATER 5 D/WK FOR 103 WK (STUDY DURATION: 104 WK), Tumor Site: Type of Lesion: SKIN: SEBACEOUS GLAND ADENOMA OR BASAL CELL TUMOR OR SEBACEOUS GLAND ADENOCARCINOMA, FORESTOMACH: SQUAMOUS CELL PAPILLOM) of the same compound?
Its carcinogen call is “active; positive”.
